From US10350187B2, “Methods and composition for suppression of pathogenic bacterial growth, fungal growth, or microbial growth in or on skin” (priority 2017, dated 2019) come the findings set out here.

Assay [1] relates to M. globosa. The experiment in a line: M. globosa growth on solid media with composition and individual component supplementation (Example 3). The note with it: individual component supplementation, after 5 days.
Assay [2] deals with M. restricta MYA-4611. The experiment in a line: M. restricta growth on solid media with composition and individual component supplementation (Example 3). The note with it: individual component supplementation, after 5 days.
Assay [3] has as its system M. restricta MYA-4611. Kind of assay: M. restricta growth in liquid MLNB media (Example 3). In kind it is cell-based. As for the experimental part: (§1) At appropriate time intervals (0 h, 24 h, 48 h, 72 h, and 168 h) 1 mL aliquots of the cell suspension were withdrawn and plated on MLNA. All the experiments were performed in duplicate.
Assay [4] has as its system M. globosa. The experiment in a line: M. globosa growth in liquid MLNB media (Example 3). The class given is cell-based. As for the experimental part:
as §1

Consider `N[C@@H](CC(=O)O)C(=O)O` [L-Asp, L-aspartic acid], for which the “growth on solid media” value in the assay with M. globosa [1] (0.46% L-Asp) and with M. restricta MYA-4611 [2] (0.46% L-Asp) was “support some growth” in each case. Further, the “M. restricta growth in liquid MLNB media” value in the assay on M. restricta MYA-4611 [3] (0.46% L-Asp, t = 24 h) was 15 cfu/mL; with M. restricta MYA-4611 [3] (0.46% L-Asp, t = 48 h), 11 cfu/mL; in the assay on M. restricta MYA-4611 [3] (0.46% L-Asp, t = 72 h), 10 cfu/mL; with M. restricta MYA-4611 [3] (0.46% L-Asp, t = 168 h), 14 cfu/mL. In addition, the “M. globosa growth in liquid MLNB media” value in the assay with M. globosa [4] (0.46% L-Asp, t = 24 h) was 14 cfu/mL; with M. globosa [4] (0.46% L-Asp, t = 48 h), 10 cfu/mL; in the assay on M. globosa [4] (0.46% L-Asp, t = 72 h), 6 cfu/mL; in the assay on M. globosa [4] (0.46% L-Asp, t = 168 h), 1 cfu/mL.
For the compound `NC(=O)c1cccnc1` [Niacinamide, niacinamide, reference compound], the “growth on solid media” value in the assay with M. globosa [1] (0.5% niacinamide) and in the assay on M. restricta MYA-4611 [2] (0.5% niacinamide) was “support some growth” throughout. Further, the “M. restricta growth in liquid MLNB media” value in the assay with M. restricta MYA-4611 [3] (0.5% Niacinamide, t = 24 h) is reported as 20 cfu/mL; in the assay with M. restricta MYA-4611 [3] (0.5% Niacinamide, t = 48 h), 5 cfu/mL; in the assay with M. restricta MYA-4611 [3] (0.5% Niacinamide, t = 72 h), 0 cfu/mL; with M. restricta MYA-4611 [3] (0.5% Niacinamide, t = 168 h), 0 cfu/mL. Further, the “M. globosa growth in liquid MLNB media” value in the assay with M. globosa [4] (0.5% Niacinamide, t = 24 h) is reported as 2 cfu/mL; in the assay with M. globosa [4] (0.5% Niacinamide, t = 48 h), 0 cfu/mL; in the assay on M. globosa [4] (0.5% Niacinamide, t = 72 h) it was 0 cfu/mL; in the assay on M. globosa [4] (0.5% Niacinamide, t = 168 h) it was 0 cfu/mL.
For the compound conjugated linoleic acid [CLA], the “growth on solid media” value in the assay on M. globosa [1] (1.5% CLA) and in the assay with M. restricta MYA-4611 [2] (1.5% CLA) was “support some growth” in each case. In addition, the “M. restricta growth in liquid MLNB media” value is 7 cfu/mL in the assay with M. restricta MYA-4611 [3] (1.5% CLA, t = 24 h); 0 cfu/mL in the assay with M. restricta MYA-4611 [3] (1.5% CLA, t = 48 h); 0 cfu/mL with M. restricta MYA-4611 [3] (1.5% CLA, t = 72 h); 0 cfu/mL in the assay with M. restricta MYA-4611 [3] (1.5% CLA, t = 168 h). Moreover, the “M. globosa growth in liquid MLNB media” value in the assay with M. globosa [4] (1.5% CLA, t = 24 h) is reported as 2 cfu/mL; in the assay with M. globosa [4] (1.5% CLA, t = 48 h), 0 cfu/mL; in the assay with M. globosa [4] (1.5% CLA, t = 72 h) it was 0 cfu/mL; with M. globosa [4] (1.5% CLA, t = 168 h) it was 0 cfu/mL.
